{
  "source": "patent US20250282802A1",
  "about": "“P[…] AND METHODS” (priority 2020, published 2025)",
  "assay_type_in_all_cases": "cell-based",
  "key": {"[1]": {"tested_on": "Aspergillus fumigatus 1163", "experiment": "Fungicidal bioassay (MIC), Aspergillus fumigatus", "conditions": "for MIC: Aspergillus fumigatus, 1163, 48 hrs growth, CLSI", "procedure": "(§1) Bacteria, plasmids and growth conditions. Bacterial strains, plasmids and primers used in this study are described in Table 3 and 4. General chemical and molecular biology reagents were purchased from Sigma-Aldrich or New England Biolabs. Phosphinothricin (glufosinate) was purchased from GoldBio (CAS #77182-82-2). Standard bacterial growth media were prepared as described (Current Protocols in Molecular Biology 2019, 125:e81, e82, e83). E. coli strains were typically grown at 37° C.; P. ananatis strains were typically grown at 30° C. Phosphonate induction media (PIM) was prepared as follows: 8.37 g/L MOPS, 0.72 g/L Tricine, 0.58 g/L NaCl, 0.51 g/L NH4Cl, 1.6 g/L KOH, 0.1 g/L MgCl2·6H2O, 0.05 g/L K2SO4, 0.2 g/L K2HIPO4 were dissolved H2O and steam sterilized for 20 min at 121° C. After cooling, 1× sterile trace element solution was added (1000× stock: 1.5 g/L nitrilotriacetic acid trisodium salt, 0.8 g/L Fe(NH4)2(SO4)2·7H2O, 0.2 g/L Na2SeO3, 0.1 g/L CoCl2·6H2O, 0.1 g/L MnSO4·H2O, 0.1 g/L Na2MoO4·2H2O, 0.1 g/L Na2WO4·2H2O, 0.1 g/L ZnSO4·7H2O, 0.1 g/L NiCl2·6H2O, 0.01 g/L H3BO3, 0.01 g/L CuSO4·5H2O) followed by addition of 1% (v/v) sterile glycerol and 50 μg/mL sterile kanamycin. For culturing of Candida and Saccharomyces strains, Rosewell Park Memorial Institute 1640 medium (RPMI; Sigma-Aldrich R6504) was used for liquid culturing and Sabouraud Dextrose Agar (SDA; Difco™ 210950) for solid plating unless otherwise specified. For Aspergillus strains, Rosewell Park Memorial Institute 1640 medium (RPMI) was used for liquid culturing and Potato Dextrose Agar (PDA; Difco™ 213400) was used for solid plating unless otherwise specified. YMM medium (6.7 g/L yeast nitrogen base without amino acids [BD Difco™ 291940], 20 g/L glucose, 1× trace element solution) was used as minimal media for fungal strains.\n(§2) Fungicidal bioassays. […] Minimum Inhibitory Concentration (MIC) was determined visually by finding the concentration of compound at which there was no visual difference between that concentration and the uninoculated media control."}, "[2]": {"tested_on": "Saccharomyces cerevisiae X2180-1A", "experiment": "Fungicidal bioassay (MIC), Saccharomyces cerevisiae", "conditions": "for MIC: Saccharomyces cerevisiae, X21801A, 48 hrs growth, CLSI", "procedure": "as §1, §2"}, "[3]": {"tested_on": "Staphylococcus aureus ATCC 29213", "experiment": "Antibacterial bioassay (MIC), Staphylococcus aureus", "conditions": "CLSI", "procedure": "Antibacterial bioassays. Susceptibility testing for the ESKAPE pathogens and Salmonella enterica LT2 was performed using a Kirby-Bauer method as outlined by the Clinical and Laboratory Standards Institute (CLSI). For rich media bioassays, Mueller Hinton Broth 2 (MH-2, Sigma-Aldrich, 90922) was used for all strains except 1% BHI was supplemented for Enterococcus faecalis ATCC 19433. For minimal media bioassays, glucose-MOPS minimal medium was used. Briefly, overnight bacterial cultures were sub-cultured and inoculated into 5 mL top agar (0.7% agar) for final concentration of 5×10^5 CFU/mL. Then, 20 μL of a compound 2-fold dilution series (200, 100, 50, 25, 12.5, 6.25 μM in water) was spotted on 6 mm diameter blank paper discs (BD BBL™ 231039). Control discs received 20 μL of 50 mg/mL kanamycin. Plates were incubated at 35° C. for 20-24 hours. […] Sensitivity of the IPTG-inducible phosphonate uptake strain WM6242 to pantaphos was tested using a disk diffusion assay. Plates containing growth medium were overlayed with 5 mL of top agar (0.7% agar) inoculated with 100 μL (OD600=0.8) of the phosphonate-specific E. coli indicator strain (WM6242) with or without addition of 1 mM IPTG. WM6242 is engineered with an IPTG-inducible, non-specific phosphonate uptake system (phnCDE). […]"}, "[4]": {"conditions": "M9 minimal medium, read-out: MIC, Minimal medium"}, "[5]": {"conditions": "RPMI 1640 medium, read-out: MIC, Rich medium"}},
  "note": "Like-named read-outs stand apart in the source and are kept apart here.",
  "data": [
    {"smiles": "O=C(O)/C=C(\\C(=O)O)C(O)P(=O)(O)O", "note": "(centres unmarked) [pantaphos, 2-(hydroxy(phosphono)methyl)maleate]", "values": [
      {"measurement": "MIC", "setting": "[1]; [4]", "result": "> 125", "unit": "µM"},
      {"measurement": "MIC", "setting": "[1]; [5]", "result": "> 125", "unit": "µM"},
      {"measurement": "effect on the growth of fungi, in words", "setting": "[1]; rich or minimal media", "result": "no effect on the growth"},
      {"measurement": "MIC", "setting": "[2]; [4]", "result": "> 62.5", "unit": "µM"},
      {"measurement": "MIC", "setting": "[2]; [5]", "result": "> 125", "unit": "µM"},
      {"measurement": "effect on the growth of fungi, in words", "setting": "[2]; rich or minimal media", "result": "no effect on the growth"},
      {"measurement": "MIC", "setting": "[3]; ATCC29213, Mueller-Hinton 2 medium, read-out: MIC, Rich medium", "result": "> 200", "unit": "µM"},
      {"measurement": "MIC", "setting": "[3]; ATCC29213, glucose-MOPS minimal medium, read-out: MIC, Minimal medium", "result": "> 200", "unit": "µM"}
    ]}
  ]
}
